Data reported in patent US20040167092A1, “Medicaments” (priority 2001, published 2004).

Tests used:
Type in all cases: in vivo
radiation-induced emesis = experiment: Radiation-induced (X-irradiation) emesis in the conscious ferret; settings: for anti-emetic effect with DPCPX, animals affected (in words): two animals; for effect on radiation-induced emesis (in words): s.c. immediately after X-irradiation, conscious ferret
Excerpt: The effects of a number of A1 agonists (including N-(3-fluoro4-hydroxy-phenyl)-5′-O-methyl-adenosine and N-(4-hydroxy-phenyl)-5′-O-methyl-adenosine) and an antagonist, 1,3-dipropyl-8-cyclopentylxanthine (DPCPX), were investigated for anti-emetic action against radiaton-induced emesis in the conscious ferret. In addition DPCPX was used in an attempt to block the anti- emetic effects of the partial agonist, N-(3-fluoro-4hydroxy-phenyl)-5′-O-methyl-adenosine, the structure of which is indicated below. [drawing 4]
For all the experiments. adult male ferrets, body weight range 1-1.5 kg, were used. Emesis was induced by X-irradiation, morphine and cisplatin.
The ferrets were weighed on the day before the experiment. On the day of the experiment each ferret received 2Gy (200 Rad) whole body X-irradiation, administered over a 5 minute period. The A1 receptor agonists, partial agonists or antagonist were administered via the subcutaneous route immediatelv after X-irradiation (i.e. approximately 25 minutes before the onset of emesis). When investigating the effects of the A1 receptor antagonist, DPCPX, on the partial agonist N-(3-fluoro4-hydroxy-phenyl)-5′-O-methyl-adenosine, either both compounds were administered simultaneously immediately after X-irradiation, or the DPCPX was given as a 15 minute pre-treatment.

cisplatin-induced emesis = experiment: Cisplatin-induced emesis in the conscious ferret; settings: cisplatin 200 mg m-2 i.p., 1 mg kg-1 s.c. after first emetic episode, n=2
Protocol: For all the experiments. adult male ferrets, body weight range 1-1.5 kg, were used. Emesis was induced by X-irradiation, morphine and cisplatin. The ferrets were weighted and measured for the calculation of body surface area on the day before the experiment. On the day of the experiment each ferret received an intraperitoneal dose of cisplatin (200 mg m^−2).

morphine-induced emesis = experiment: Morphine-induced emesis in the conscious ferret; settings: morphine 0.5 mg kg-1 s.c., 1 mg kg-1 s.c. 15 minutes before morphine, n=2

Row | Structure (SMILES) | % inhibition of retching (radiation-induced emesis; 2Gy whole body X-irradiation, 1.0 mg kg-1 s.c. immediately after irradiation, observed 2 hours, n=2) | anti-emetic effect with DPCPX, animals affected (in words) (radiation-induced emesis; DPCPX 3 mg kg-1 s.c., 15 minute pre-treatment) | anti-emetic effect with DPCPX, animals affected (in words) (radiation-induced emesis; DPCPX 1 mgkg-1 s.c. administered simultaneously) | reversal of the anti-emetic effect by the A1 receptor antagonist DPCPX (in words) (radiation-induced emesis; X-irradiation, addition of DPCPX) | effect on radiation-induced emesis (in words) (radiation-induced emesis) | % inhibition of retching (cisplatin-induced emesis; 1h) | % inhibition of retching (cisplatin-induced emesis; 2h) | % inhibition of retching (cisplatin-induced emesis; 7h) | % inhibition of retching (morphine-induced emesis; 1h) | % inhibition of retching (morphine-induced emesis; 2h)
1 | COC[C@H]1O[C@@H](n2cnc3c(Nc4ccc(O)c(F)c4)ncnc32)[C@H](O)[C@@H]1O [N-(3-fluoro-4-hydroxyphenyl)-5′-O-methyl-adenosine] | 100% | anti-emetic effect in both animals was reduced | anti-emetic effect in only one of the two animals tested was reduced | partially reversed | completely inhibited emesis | 100% | 67% | 43% | 100% | 100%
2 | COC[C@H]1O[C@@H](n2cnc3c(Nc4ccc(O)cc4)ncnc32)[C@H](O)[C@@H]1O [N-(4-hydroxyphenyl)-5′-O-methyl-adenosine] | – | – | – | – | completely inhibited emesis | – | – | – | – | –
